No end group written: not given here.
What was measured:
Type in all cases: cell-based, human
PBL = assay: Proliferation of PBL, direct presentation of peptide without APC
Description: In all three methods, plates were cultured for 3-5 days under visual control and then 0.5 □Cu/well of 3[H] (Amersham) was added for additional culture of to 18 h at 37° C. […] DC indirect presentation: In the first method, 100 µl of 2×10^6 thawed PBL were placed in U-shape Bottom 96 well plate (Nunc) with RPMI medium supplemented with 5% H AB serum, L-Glutamine, Sodium Pyruvate, MEM-EAGLE non-essential amino-acids, HEPES and Gentamycin. At the next stage 100 µl of 25×10^4 peptide-pulsed DC were added to each three wells of PBL and underwent proliferation analysis as described above. • 2. PBL direct presentation: In the 2nd method, 100 µl of 2×10^6 PBL were placed in Flat Bottom 96 well plates (Corning) and stimulated with different concentrations (0.05 ug/ml-2 ug/ml) of peptides. In the next step the cells underwent proliferation analysis as described above. • 3. PBMC direct presentation: In third method PNMC were used under similar conditions as described for the second method.
Direct presentation of peptides to PBL without any APC

[1] = system: ImMucin specific enriched T-cell clone; assay: ELISA of cytokine secretion during development of the ImMucin-specific T cell subpopulation by repeated stimulation (FIG. 1)
Source text: (§1) Thawed PBLs underwent 1st stimulation with ImMucin pulsed Autologues DC at a ratio of 20:1 and cultured for 7 days in dedicated T cell Medium. T cell medium contained RPMI medium supplemented with 10% FCS, L-Glutamine, Sodium Pyruvate, MEM-EAGLE non-essential amino-acids, HEPES and Gentamycin Sulphate (Bet-Haemek Industries, IL) as well as with 50 IU/ml of recombinant IL-7 (Cytolab IL). For the second stimulation, PBL were transferred to adherent autologues ImMucin-pulsed PBMC and cultured for additional 5 days in T cell Medium. At the end of the 5 days, medium was partial replaced with fresh medium containing 1 ug/ml of ImMucin and 50 IU/ml IL-2 for a third stimulation of 48 h at 37° C. Following the last stimulation ImMucin T cell line was checked for immune activation properties.
Cytokine release was studied during the culture of stimulated T-cells. The evaluated samples were collected from the T cell culture medium on day 2, 3, and 5 and stored until use at −20° C.
[…] of the selected capture antibody (e.g. anti-Hu IFN-Gamma, or anti-Hu TNF-alfa or anti IL-2) were added to each well at the final concentration of 5 μg/ml in PBS. Plates were incubated for 2 h at R.T. or over night at 4° C. Next, […] of blocking solution were added for an incubation of 2 h at R.T. […] of evaluated samples were added in duplicate into 2 wells for 2 hours at RT. After 2 h of incubation at R.T plates were washed λ4 times in washing solution. In the next step, a Biotin-conjugated detection antibody (relevant to coated antibody) was added at a final concentration of 10 μg/ml in total volume of 100 μl for 1 h at R.T. Finally, 100 μl/well working dilution (1:10000 in Blocker solution) of Streptavidin-HRP were added to each well and incubated for 1 h at R.T.
Plates were washed λ6 times with PBS-Tween (0.4%) and 100 μl/well of TMB/E Solution (CHEMICON, Catalog #ES001) was added. The plates were then exposed until blue color appeared in the wells of the positive control and no color was detected in the blank wells. To stop the color reaction, 50 μl/well of 10% of Sulfuric acid was added. The plates were counted in ELISA-Reader using a 450 nm filter.
For producing the specific T cell subpopulation PBL were stimulated three times for 7, 5 and 2 days with ImMucin presented via DC and PBMC. Following the 3rd stimulation the cells were evaluated against the different VXL epitopes.

[2] = system: PBLs (CD4+, CD8+, CD45RO+ T cells); assay: FACS analysis of T cell phenotype during repeated stimulation with ImMucin (FIG. 2)
Source text: as §1
For FACS analysis, PBLs were suspended at a final concentration of 20×10^6 and 50 µl were transfer into FACS tube (Falcon) in Blocker solution (PBS with 3% FCS and 0.1% Sodium Azide). 10 µl of fluorochrome-conjugate anti-CD4, anti-CD8, and anti-CD45RO (eBioscience) were added for 30 min on ice at 0° C. in the Dark. After the incubation cell were washed with 2 ml of the blocker solution and re suspended in 0.5 ml of Phosphate buffer saline (PBS). Samples were analyzed in a FACS-sort machine (BD) for positive florescence.
The ability of ImMucin to propagate a subpopulation of CD4^+ and CD8^+ T cells was further analyzed, and in particular the ability of ImMucin to transform naive CD4^+ and CD8^+ T cells into memory cells. This property was evaluated in a FACS analysis measuring the CD45RO^+ marker for memory T cells on CD4^+ and CD8^+ subpopulations (FIG. 2).

[3] = system: lymphocytes from naive donors; assay: Proliferation assay, kinetics of lymphocyte activation as summarised in text (presentation mode not stated); settings: summary of five experiments
Description: Proliferation analysis was conducted in three different methods. In all three methods, plates were cultured for 3-5 days under visual control and then 0.5 […]Cu/well of 3[H] (Amersham) was added for additional culture of to 18 h at 37° C. In the last step, plates were harvested and the radioactive counts were measured in a □ counter. • 1. DC indirect presentation: In the first method, 100 µl of 2×10^6 thawed PBL were placed in U-shape Bottom 96 well plate (Nunc) with RPMI medium supplemented with 5% H AB serum, L-Glutamine, Sodium Pyruvate, MEM-EAGLE non-essential amino-acids, HEPES and Gentamycin. At the next stage 100 µl of 25×10^4 peptide-pulsed DC were added to each three wells of PBL and underwent proliferation analysis as described above. • 2. PBL direct presentation: In the 2nd method, 100 µl of 2×10^6 PBL were placed in Flat Bottom 96 well plates (Corning) and stimulated with different concentrations (0.05 ug/ml-2 ug/ml) of peptides. In the next step the cells underwent proliferation analysis as described above. • 3. PBMC direct presentation: In third method PNMC were used under similar conditions as described for the second method.
A different parameter for assessing the properties of ImMucin and the other VXL-peptide epitopes is by analyzing the time until a maximal peak of activity occurs and the optimal dose for maximal stimulation. Maximal peak of PBL activation is determined when <50% of the PBLs appear in clumps. In these experiments, the kinetic (time) in the proliferation of lymphocytes from the six naive donors stimulated at a fix dose of 0.05-1 ug/ml by ImMucin and other VXL-Peptides, was observed.

[4] = after the second and third stimulations with ImMucin

MTPGTQSPFFLLLLLTVLTVV [ImMucin]
PBL Index of stimulation (SI) Direct no APC (PBL; average of two healthy donors (Table 11)): 0 | Optimal dose Direct no APC (PBL; optimal dose required for PBL activation, average of 5 experiments, six donors): No Influence | Peak of Proliferation (Hours) Direct no APC (PBL; visual inspection daily during 5 days, average of 5 experiments): No proliferation | TNF-Alfa secretion ([1]; after the 3rd stimulation on day 14): completely disappeared | IL-2 secretion from CD4+ T cells [1, 4]: increased dramatically | INF-gamma secretion mainly from CD8+ T cells [1, 4]: increased dramatically | TNF-Alfa secretion, peak ([1]; during the first stimulation with ImMucin (FIG. 1)): 5 ng/mL | TNF-Alfa secretion ([1]; following a second stimulation with ImMucin): decreased | increase in percentage of memory CD45RO+ cells ([2]; ImMucin activation): two fold | percentage of CD8+ T cells ([2]; after repeated stimulation with ImMucin, from 15% before): 36% | percentage of CD4+ T cells ([2]; after repeated stimulation with ImMucin, from 43% before): 85% | peak of proliferation / maximum stimulation [3]: ~96 h

From patent US11179452B2, “Antigen specific multi epitope vaccines” (priority 2006, dated 2021)
